Where two headings read alike, the source gives them in different places. Values belong to the compound of their own block, whether it stands above or below them.
Legend:
[1] = tested on: broccoli sprout-derived myrosinase; assay: Hydrolysis of glucoraphanin (broccoli seed extract) by myrosinase as a function of ascorbic acid concentration; assay type: biochemical; details: 38° C.; for Slope (rate of glucoraphanin consumption): linear regression 0-60 min
Method: About 250 mg of broccoli seed extract containing about 12% (w/w) glucoraphanin were subjected to hydrolysis by a fixed concentration of broccoli sprout-derived myrosinase in the presence of variable concentration of ascorbic acid, ranging from 0 to 600 μmoles/Liter. The reaction mixtures were thermostated at 38° C.; aliquots were withdrawn every 15 minutes for 60 minutes, and concentration of glucoraphanin determined chromatographically. The rate of glucoraphanin consumption was interpreted as the rate its conversion to sulforaphane. Graphical representation of glucoraphanin content reduction as a function of increasing ascorbic acid concentration results in a series of linear plots; the slopes of the linear regression lines reflect the rate of glucoraphanin consumption, in μmoles/minute. It is apparent that in the presence of 600 μmoles/Liter concentration of ascorbic acid, the reaction rate increased 13-fold relative to that which proceeded in the absence of modulatory effects of ascorbic acid.

[2] = tested on: myrosinase; assay: Equimolar conversion of glucoraphanin to sulforaphane by myrosinase, with and without ascorbic acid; assay type: biochemical; details: Part 2; broccoli seed extract fixed at 250 mg
Method: A two-part experiment was conducted to further elucidate the role of ascorbic acid in modulating myrosinase activity. […] A control sample contained no ascorbic acid, and the enzymatic conversion proceeded unassisted by a co-factor. PART 1. […] PART 2. While keeping the amount of broccoli seed extract fixed at 250 mg, the concentration of ascorbic acid was varied from 0.4 mmol/Liter to 3.8 mmol/Liter.

[3] = tested on: myrosinase; assay: Conversion of glucoraphanin to sulforaphane in Simulated Intestinal Fluid; assay type: biochemical, broccoli; details: 0.25 to 1.00 mmol/Liter ascorbic acid, 38° C., especially at the earlier stages, FIG. 4
Method: Simulated Intestinal Fluid (SIF) powder, a commercially supplied concentrate closely approximating the human intestinal content in terms of composition, pH and ionic strength, was used. The experiment utilized a USP Dissolution Apparatus 2 (paddles), where into six dissolution vessels 500 mL of Simulated Intestinal Fluid was dispensed, along with 150 mg of freeze-dried broccoli sprout powder as a source of myrosinase. […] Aliquots were withdrawn every 15 minutes, and assayed for sulforaphane.

[4] = tested on: monocyte chemoattractant protein (MCP-1); details: 24 hours, RAW cells activated with 1 μg/mL LPS
Method: The following study was conducted to determine the effect of the combination of sulforaphane and magnesium sulfate (MgSO4) on expression of monocyte chemoattractant protein (MCP-1), which is a mediator of inflammation. MCP-1 is chemokine which attracts monocytes, macrophages, and lymphocytes to sites of inflammation. A reduction in MCP-1 is beneficial for the health of endothelial cells which line the cardiovascular system.
In the study, RAW cells were activated with 1 μg/mL lipopolysaccharide (LPS) for 30 minutes to stimulate the induction of MCP-1 gene expression. Following LPS treatment, the cells were treated with one of the following: (i) DMSO (vehicle control), (ii) 0.5 μM SFN, (iii) 2.5 mM MgSO4, or (iv) the combination of 0.5 μM SFN and 2.5 mM MgSO4. After treatment for 24 hours, the MCP-1 levels were assessed via quantitative RT-PCR.

[5] = tested on: NAD(P)H:quinine oxidoreductase (NQO1); details: oral administration; mammary epithelium; Sprague-Dawley rats; cited from earlier work
[6] = tested on: heme oxygenase-1 (HO-1); details: oral administration; mammary epithelium; Sprague-Dawley rats; cited from earlier work
[7] = tested on: mammary tumors; details: Sprague-Dawley rats; cited from earlier work

ascorbic acid concentration up to which myrosinase-promoted conversion increases apparently linearly, then levels off [2]: about 2 mmol/L
SMILES: O=C1O[C@H]([C@@H](O)CO)C(O)=C1O [Ascorbic Acid, ascorbic acid]
increase of reaction rate (glucoraphanin consumption) ([1]; 600 μmoles/Liter ascorbic acid, relative to absence of ascorbic acid): 13 fold | Slope (rate of glucoraphanin consumption) ([1]; ascorbic acid 50 μM): -0.286 µmol/min | glucoraphanin (GR) content ([1]; ascorbic acid 50 μM, time 0 min): 93.36 µmol | glucoraphanin (GR) content ([1]; ascorbic acid 50 μM, time 15 min): 89.20 µmol | glucoraphanin (GR) content ([1]; ascorbic acid 50 μM, time 30 min): 84.24 µmol | glucoraphanin (GR) content ([1]; ascorbic acid 50 μM, time 45 min): 80.30 µmol | glucoraphanin (GR) content ([1]; ascorbic acid 50 μM, time 60 min): 76.36 µmol | Slope (rate of glucoraphanin consumption) ([1]; ascorbic acid 125 μM): -0.5622 µmol/min | glucoraphanin (GR) content ([1]; ascorbic acid 125 μM, time 0 min): 93.36 µmol | glucoraphanin (GR) content ([1]; ascorbic acid 125 μM, time 15 min): 84.52 µmol | glucoraphanin (GR) content ([1]; ascorbic acid 125 μM, time 30 min): 75.92 µmol | glucoraphanin (GR) content ([1]; ascorbic acid 125 μM, time 45 min): 68.09 µmol | glucoraphanin (GR) content ([1]; ascorbic acid 125 μM, time 60 min): 59.41 µmol | Slope (rate of glucoraphanin consumption) ([1]; ascorbic acid 250 μM Filtered): -0.4714 µmol/min | glucoraphanin (GR) content ([1]; ascorbic acid 250 μM Filtered, time 0 min): 93.36 µmol | glucoraphanin (GR) content ([1]; ascorbic acid 250 μM Filtered, time 15 min): 86.31 µmol | glucoraphanin (GR) content ([1]; ascorbic acid 250 μM Filtered, time 30 min): 79.44 µmol | glucoraphanin (GR) content ([1]; ascorbic acid 250 μM Filtered, time 45 min): 71.94 µmol | glucoraphanin (GR) content ([1]; ascorbic acid 250 μM Filtered, time 60 min): 65.18 µmol | Slope (rate of glucoraphanin consumption) ([1]; ascorbic acid 250 μM): -0.7901 µmol/min | glucoraphanin (GR) content ([1]; ascorbic acid 250 μM, time 0 min): 93.36 µmol | glucoraphanin (GR) content ([1]; ascorbic acid 250 μM, time 15 min): 80.95 µmol | glucoraphanin (GR) content ([1]; ascorbic acid 250 μM, time 30 min): 69.06 µmol | glucoraphanin (GR) content ([1]; ascorbic acid 250 μM, time 45 min): 57.63 µmol | glucoraphanin (GR) content ([1]; ascorbic acid 250 μM, time 60 min): 45.76 µmol | Slope (rate of glucoraphanin consumption) ([1]; ascorbic acid 400 μM): -1.007 µmol/min | glucoraphanin (GR) content ([1]; ascorbic acid 400 μM, time 0 min): 93.36 µmol | glucoraphanin (GR) content ([1]; ascorbic acid 400 μM, time 15 min): 78.32 µmol | glucoraphanin (GR) content ([1]; ascorbic acid 400 μM, time 30 min): 62.78 µmol | glucoraphanin (GR) content ([1]; ascorbic acid 400 μM, time 45 min): 47.67 µmol | glucoraphanin (GR) content ([1]; ascorbic acid 400 μM, time 60 min): 33.15 µmol | Slope (rate of glucoraphanin consumption) ([1]; ascorbic acid 600 μM): -1.2 µmol/min | glucoraphanin (GR) content ([1]; ascorbic acid 600 μM, time 0 min): 93.36 µmol | glucoraphanin (GR) content ([1]; ascorbic acid 600 μM, time 15 min): 75.02 µmol | glucoraphanin (GR) content ([1]; ascorbic acid 600 μM, time 30 min): 55.66 µmol | glucoraphanin (GR) content ([1]; ascorbic acid 600 μM, time 45 min): 37.50 µmol | glucoraphanin (GR) content ([1]; ascorbic acid 600 μM, time 60 min): 22.09 µmol | relation of sulforaphane yield to ascorbic acid concentration [3]: direct correlation between larger yield of sulforaphane and higher concentrations of ascorbic acid

SMILES: O=S(=O)([O-])[O-].[Mg+2] [magnesium sulfate]
decrease in MCP-1 levels ([4]; 2.5 mM MgSO4): approximately 16%

SMILES: C[S+]([O-])CCCCN=C=S (centres unmarked) [sulforaphane, 1-isothiocyanato-4-methylsulfinylbutane]
decrease in MCP-1 levels ([4]; 0.5 μM SFN): approximately 29% | increase in NQO1 enzymatic activity [5]: 3 fold | elevated immunostaining of HO-1 [6]: 4 fold | blocking the formation of mammary tumors [7]: effective in blocking the formation of mammary tumors

— US20150118304A1, “COMPOSITIONS COMPRISING SULFORAPHANE OR A SULFORAPHANE PRECURSOR AND MAGNESIUM” (Nutramax Laboratories, Inc., priority 2012, published 2015)
